Assay results published in paper PMC12051620, “Molecular basis underlying the specificity of an antagonist AA92593 for mammalian melanopsins” (The Journal of Biological Chemistry, 2025).

Target: T1, human melanopsin WT (Homo sapiens, UniProt Q9UHM6)
T1 construct: expressed in transfected cells; host or cells: COS-1
T1 sequence (Q9UHM6 1-384 limits assumed): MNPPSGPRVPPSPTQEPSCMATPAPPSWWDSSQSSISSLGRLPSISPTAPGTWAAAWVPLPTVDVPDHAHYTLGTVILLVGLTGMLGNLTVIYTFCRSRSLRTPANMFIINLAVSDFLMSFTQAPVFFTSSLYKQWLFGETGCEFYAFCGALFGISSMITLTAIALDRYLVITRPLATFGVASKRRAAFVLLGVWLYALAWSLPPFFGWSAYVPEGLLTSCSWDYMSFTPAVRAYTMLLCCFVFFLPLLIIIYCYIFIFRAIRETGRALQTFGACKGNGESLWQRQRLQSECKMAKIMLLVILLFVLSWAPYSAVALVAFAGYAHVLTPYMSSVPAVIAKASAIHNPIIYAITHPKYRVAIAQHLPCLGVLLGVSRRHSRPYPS
Experiment: GsX GloSensor assay with Gsα/q11 (light-induced cAMP response)
Format: cell-based
Details: COS-1 cells
From the text: To quantify the antagonistic effects of AA92593 on mammalian melanopsins, we used the GsX GloSensor assay ([12], [13], [14]). This assay measures GPCR-induced increases in intracellular cAMP levels even for Gq-, Gi/o-, or G12-coupled receptors by using Gsα chimeras ([12], [13], [14]). Because melanopsin is primarily coupled with Gq-type G proteins, a Gsα mutant with 11 C-terminal sequence of Gqα (Gsα/q11) was expressed in COS-1 cells with melanopsin and a luciferase-based cAMP biosensor (see “Experimental procedures”) ([15]). This assay enables the measurement of Gq activation by melanopsin as cAMP production (an increase in luminescence). In this study, we used C-terminal–truncated melanopsin constructs to increase the expression levels with minimal compromise in functionality ([9], [16], [17], [18], [19]). […] In addition, the C-terminal region is located far from the binding site of AA92593 (see below). Hereafter, the C-terminal–truncated melanopsin constructs are named as “WT.”
In the constructs for melanopsin expression (opsin name - GenBank ID: human melanopsin - NM_033282.4, mouse melanopsin - NM_013887.2, Xenopus Opn4x - NM_001085674.1, chicken opn4-1 - NM_001397961.1, B. belcheri melanopsin - AB205400.1, and B. lanceolatum melanopsin - MF464477.1), the C-terminal amino acid residues (94, 140, 200, 214, 296, and 308 residues for human ([9]), mouse ([9]), Xenopus, chicken, belcheri ([16]), and lanceolatum melanopsins, respectively) were removed, the 1D4 tag sequence (ETSQVAPA) was added, and inserted into the EcoRI/NotI site in a mammalian expression vector pMT. Jumping spider rhodopsin-1 (GenBank ID: AB251846.1) was also added with the 1D4 tag and inserted into pMT vector. Human and mouse melanopsins, and jumping spider rhodopsin-1 in pCDNA3.1 were kindly provided from Drs. Akihisa Terakita and Mitsumasa Koyanagi (Osaka Metropolitan University). In this paper, each opsin with the C-terminal sequence modifications as described above is denoted “WT.” Bovine Gsα and its mutants Gsα/q11 and Gsα/i11 (C-terminal 11 residues are replaced with Gqα and Giα, respectively) were also inserted into the pMT vector. The GFP-tagged melanopsin constructs, in which EGFP protein fused with C-termini of melanopsins, were prepared as previously described ([9], [50]). […]
For GloSensor assay, opsins, GloSensor assay sensor (coded by pGlo-22F), and NanoBiT-tagged G proteins were transiently expressed in COS-1 cells (kindly provided from Dr David Farrens, Oregon Health and Science University) using PEI as described previously ([24], [52]). […] For GFP-fluorescence microscopy, a 35-mm cell culture dish (IWAKI) was transfected with 2 μg melanopsin-GFP plasmid and 8 μg PEI in 400 μl Opti-mem and 1.2 ml D-MEM. […]

[1] = relative peak cAMP response vs no AA92593

## COc1ccc(S(=O)(=O)N2CCCCC2)cc1C [AA92593]
  Hill fitting parameter rate of dose-response curve: −0.92 ± 0.21
0.1 μM 9-cis-retinal, white light 10 s, n = 3, read-out: IC50, reduction in peak cAMP responses upon Gsα/q11 activation
  IC50: 1050 ± 280 nM
[1]
  Hill fitting parameter max of dose-response curve: 102.59 ± 2.72
  Hill fitting parameter min of dose-response curve: 13.65 ± 7.28
